In patent publication US8445636B2, “Antimicrobial and anticancer lipopeptides” (Yeda Research & Development Co. Ltd., priority 2003, dated 2013):
Values after ≈ are worked out from the molar mass of the structure shown. Read-outs that look alike come from different tables or passages of the source. Non-standard residues stand in square brackets, D forms with d. Residues, ends and D or L forms follow the SMILES beside them. *: point of attachment. Palmitoyl = CCCCCCCCCCCCCCCC(=O)*; Lauroyl = CCCCCCCCCCCC(=O)*

Tests used:
Type in all cases: cell-based
E. coli D21 = tested on: E. coli D21
[1] = tested on: Acinetobacter baumannii ATCC 19606
Description: (§1) The antibacterial activity of the lipopeptides was examined in sterile 96-well plates (Nunc F96 microtiter plates) in a final volume of 100 μl as follows: Aliquots (50 μl) of a suspension containing bacteria at concentration of 1×10^6 Colony-Forming Units (CFU)/ml in culture LB (Lauria broth) medium (pH 7.4 or pH 5.5) were added to 50 μl of water containing the lipopeptide in serial 2-fold dilutions in water. Adjustment of the pH was done by diluted solutions of HCl and NaOH Inhibition of growth was determined by measuring the absorbance at 600 nm with a Microplate autoreader E1309 (Bio-Tek Instruments), after an incubation time of 18-20 h at 37° C. Antibacterial activities were expressed as the minimal inhibitory concentration (MIC), the concentration at which 100% inhibition of growth was observed after 18-20 h of incubation. The bacteria used were: Escherichia coli ATCC 25922, Acinetobacter baumannii ATCC 19606, Pseudomonas aeruginosa ATCC 27853, Staphylococcus aureus ATCC 6538P, Enterococcus faecalis ATCC 29212, Enterobacter cloacae ATCC 49141. The antibacterial activity of lipopeptides was also examined against resistant bacteria: methicilin-resistant Staphylococcus aureus (MRSA) ATCC 700698 and vancomycin-resistant Enterococcus faecium (VRE) ATCC 700221. If not indicated otherwise, the bacterial growth was detected at pH 7.4.

[2] = tested on: Pseudomonas aeruginosa ATCC 27853
Description: as §1

[3] = tested on: Staphylococcus aureus ATCC 6538P
Description: as §1

[4] = tested on: Candida albicans ATCC 10231; assay: microbe, parasite or virus in culture
Description: (§2) The antifungal activity of the lipopeptides was examined in sterile 96-well plates (Nunc F96 microtiter plates) in a final volume of 200 μL as follows: 100 µl of a suspension containing fungi at a concentration of 1×10^4 Colony-Forming Units (CFU)/ml in culture medium (RPMI 1640, 0.165 M MOPS with L-glutamine, without NaHCO3) at pH 7.4 or pH 5.5 (adjustment of the pH was done by diluted solutions of HCl and NaOH) were added to 100 μl of water containing the peptide in serial 2-fold dilutions in water. The fungi were incubated in the presence of the lipopeptides for 24-48 h at 35° C. in a Binder KB115 incubator under agitation. Growth inhibition was determined by measuring the absorbance at 620 nm with a Microplate autoreader E1309 (Bio-Tek Instruments). Antifungal activity is expressed as the minimal inhibitory concentration (MIC), the concentration at which 100% inhibition of fungi growth was observed after the incubation time mentioned above. The fungi used were: Aspergillus niger ATCC 9642, Candida albicans ATCC 10231 and Cryptococcus neoformans ATCC 66031. If not indicated otherwise, the fungi growth was detected at pH 7.4.

[5] = tested on: Cryptococcus neoformans ATCC MYA-422; assay: microbe, parasite or virus in culture; details: ATCC MYA-422, pH 7.4; read-out: Minimal Inhibitory Concentration, Cyrptococcus neoformans (ATCC MYA-422)
[6] = tested on: Aspergillus fumigatus ATCC 26430; assay: microbe, parasite or virus in culture
[7] = tested on: Escherichia coli ATCC 25922
Description: as §1

[8] = tested on: Cryptococcus neoformans ATCC 66031; assay: microbe, parasite or virus in culture
Description: as §2

[9] = ATCC 10231, pH 7.4, read-out: Minimal Inhibitory Concentration, Candida Albicans (ATCC 10231)
[10] = ATCC 26430, pH 7.4, read-out: Minimal Inhibitory Concentration, Aspergillus Fomigatus (ATCC 26430)

CCCCCCCCCCCCCCCC(=O)N[C@@H](CCCCN)C(=O)N[C@@H](CCC(=O)O)C(N)=O [PA-KE] (Palmitoyl-Lys-Glu-NH2)
Minimal Inhibitory Concentration, E. coli-D21 (E. coli D21; D21, pH 7.4): >100 µM | Minimal Inhibitory Concentration, A. baumannii ATCC 19606 ([1]; ATCC 19606, pH 7.4): >100 µM | Minimal Inhibitory Concentration, P. aeruginosa ATCC 27853 ([2]; ATCC 27853, pH 7.4): >100 µM | Minimal Inhibitory Concentration, S. aureus ATCC 6538P ([3]; ATCC 6538, pH 7.4): >100 µM | MIC [4, 9]: >100 µM | MIC [5]: >100 µM | MIC [6, 10]: >100 µM

CCCCCCCCCCCCCCCC(=O)N[C@@H](CCCCN)C(=O)N[C@H](CCCCN)C(=O)N[C@@H](CCC(=O)O)C(=O)N[C@@H](CCCCN)C(N)=O [PA-KKEK, Palmitoyl-Lys-D-Lys-Glu-Lys-NH2] (Palmitoyl-K[dK]EK-NH2)
Minimal Inhibitory Concentration, E. coli-D21 (E. coli D21; D21, pH 7.4): 25 µM | Minimal Inhibitory Concentration, A. baumannii ATCC 19606 ([1]; ATCC 19606, pH 7.4): 100 µM | Minimal Inhibitory Concentration, P. aeruginosa ATCC 27853 ([2]; ATCC 27853, pH 7.4): 100 µM | Minimal Inhibitory Concentration, S. aureus ATCC 6538P ([3]; ATCC 6538, pH 7.4): 25 µM | MIC [4, 9]: 50 µM (≈ 38.5 µg/mL) | MIC [5]: 12.5 µM (≈ 9.61 µg/mL) | MIC [6, 10]: 50 µM (≈ 38.5 µg/mL)

CCCCCCCCCCCCCCCC(=O)N[C@@H](CCCCN)C(=O)N[C@@H](CCCCN)C(=O)N[C@@H](CCCCN)C(=O)N[C@@H](CCCCN)C(N)=O [PA-KKKK] (Palmitoyl-KKKK-NH2)
Minimal Inhibitory Concentration, E. coli-D21 (E. coli D21; D21, pH 7.4): 12.5 µM | Minimal Inhibitory Concentration, P. aeruginosa ATCC 27853 ([2]; ATCC 27853, pH 7.4): 3.12 µM | Minimal Inhibitory Concentration, S. aureus ATCC 6538P ([3]; ATCC 6538, pH 7.4): 25 µM | MIC [4, 9]: 25 µM (≈ 19.2 µg/mL) | MIC [5]: 1.56 µM (≈ 1.2 µg/mL) | MIC [6, 10]: 12.5 µM (≈ 9.6 µg/mL)

CCCCCCCCCCCCCCCC(=O)N[C@@H](CCCCN)C(N)=O [PA-K]
Minimal Inhibitory Concentration, E. coli-D21 (E. coli D21; D21, pH 7.4): >100 µM | Minimal Inhibitory Concentration, A. baumannii ATCC 19606 ([1]; ATCC 19606, pH 7.4): >100 µM | Minimal Inhibitory Concentration, P. aeruginosa ATCC 27853 ([2]; ATCC 27853, pH 7.4): >100 µM | Minimal Inhibitory Concentration, S. aureus ATCC 6538P ([3]; ATCC 6538, pH 7.4): >100 µM | MIC [4, 9]: >100 µM | MIC [5]: 6.25 µM (≈ 2.4 µg/mL) | MIC [6, 10]: >100 µM

CCCCCCCCCCCC(=O)N[C@H](CC(C)C)C(=O)N[C@@H](CCCCN)C(=O)N[C@@H](Cc1c[nH]cn1)C(=O)N[C@H](CC(C)C)C(=O)N[C@H](CC(C)C)C(=O)N[C@@H](CCCCN)C(=O)N[C@@H](Cc1c[nH]cn1)C(=O)N[C@H](CC(C)C)C(=O)N[C@H](CC(C)C)C(=O)N[C@@H](CCCCN)C(=O)N[C@@H](Cc1c[nH]cn1)C(=O)N[C@H](CC(C)C)C(N)=O [lipopeptide 28, (CH3-(CH2)10-CO-)-D-Leu-Lys-His-D-Leu-D-Leu-Lys-His-D-Leu-D-Leu-Lys-His-D-Leu-NH2] (Lauroyl-[dL]KH[dL][dL]KH[dL][dL]KH[dL]-NH2)
Minimal inhibitory concentrations, E. Coli D21 (E. coli D21; D21, pH 5.5): >100 µM | Minimal inhibitory concentrations, E. Coli D21 (E. coli D21; D21, pH 7.4): 50 µM (≈ 83.7 µg/mL) | Minimal inhibitory concentrations, A. baumannii ATCC 19606 ([1]; ATCC 19606, pH 5.5): >100 µM | Minimal inhibitory concentrations, A. baumannii ATCC 19606 ([1]; ATCC 19606, pH 7.4): 50 µM (≈ 83.7 µg/mL) | Minimal inhibitory concentrations, E. Coli ATCC 25922 ([7]; ATCC 25922, pH 5.5): >100 µM | Minimal inhibitory concentrations, E. Coli ATCC 25922 ([7]; ATCC 25922, pH 7.4): 100 µM (≈ 167 µg/mL) | Minimal inhibitory concentrations, P. Aeruginosa ATCC 27853 ([2]; ATCC 27853, pH 5.5): >100 µM | Minimal inhibitory concentrations, P. Aeruginosa ATCC 27853 ([2]; ATCC 27853, pH 7.4): 50 µM (≈ 83.7 µg/mL) | Minimal inhibitory concentrations, S. aureus II ATCC 6538P ([3]; ATCC 6538, pH 5.5): >100 µM | Minimal inhibitory concentrations, S. aureus II ATCC 6538P ([3]; ATCC 6538, pH 7.4): 18.75 µM (≈ 31.4 µg/mL) | MIC ([4]; ATCC 10231, pH 5.5, read-out: Minimal inhibitory concentrations, C. Albicans With serum): >100 µM | MIC ([4]; ATCC 10231, pH 5.5, read-out: Minimal inhibitory concentrations, C. Albicans Without serum): 12.5 µM (≈ 20.9 µg/mL) | MIC ([4]; ATCC 10231, pH 7.4, read-out: Minimal inhibitory concentrations, C. Albicans With serum): >100 µM | MIC ([4]; ATCC 10231, pH 7.4, read-out: Minimal inhibitory concentrations, C. Albicans Without serum): 12.5 µM (≈ 20.9 µg/mL) | MIC ([8]; ATCC 66031, pH 5.5, read-out: Minimal inhibitory concentrations, C. Neofor. With serum): 12.5 µM (≈ 20.9 µg/mL) | MIC ([8]; ATCC 66031, pH 5.5, read-out: Minimal inhibitory concentrations, C. Neofor. Without serum): <0.78 µM | MIC ([8]; ATCC 66031, pH 7.4, read-out: Minimal inhibitory concentrations, C. Neofor. With serum): 6.25 µM (≈ 10.5 µg/mL) | MIC ([8]; ATCC 66031, pH 7.4, read-out: Minimal inhibitory concentrations, C. Neofor. Without serum): 1.56 µM (≈ 2.61 µg/mL) | MIC ([6]; ATCC 26430, pH 5.5, read-out: Minimal inhibitory concentrations, A. Fumig. With serum): 100 µM (≈ 167 µg/mL) | MIC ([6]; ATCC 26430, pH 5.5, read-out: Minimal inhibitory concentrations, A. Fumig. Without serum): 12.5 µM (≈ 20.9 µg/mL) | MIC ([6]; ATCC 26430, pH 7.4, read-out: Minimal inhibitory concentrations, A. Fumig. With serum): 100 µM (≈ 167 µg/mL) | MIC ([6]; ATCC 26430, pH 7.4, read-out: Minimal inhibitory concentrations, A. Fumig. Without serum): 25 µM (≈ 41.9 µg/mL)
